In patent US20020102246A1, “Antimicrobial compositions” (Novozymes A/S, priority 2000, published 2002):
Marks after values point to notes of the source that are not given here.

The compounds below were run on Pseudomonas putida (ATCC 12633) (assay: Antimicrobial activity of mediators oxidized by Coprinus cinereus peroxidase (rCiP)). Details: 50 μM mediator, rCiP 4 POXU/L, 0.5 mM hydrogen peroxide, 20 minutes at 40° C., pH 7; 6 corresponds to a total kill.
Assay type: cell-based
Procedure: Antibacterial activity of 4-aminophenol, 4-hydroxy-4′-dimethylamino azobenzene, 4,4′-biphenol, 10-methylphenoxazine and 4,4′-dihydroxydiphenyl ether was evaluated when oxidized by Coprinus cinereus peroxidase (rCiP) (available from Novozymes A/S).
Antimicrobial activity was determined on Pseudomonas putida (ATCC 12633), the cells were grown in Tryptone Soy Broth, TSB (Oxoid CM129) overnight, washed two times in sterile 0.9% saline and suspended in 50 mM HEPES buffer (Sigma H3375) at pH 7 to a cell concentration of approximately 10^6 CFU/ml. The mediators were added to the cell suspension to a final concentration of 50 μM, rCiP was added to the concentration 4 POXU/L and the enzyme reaction was started by addition of hydrogen peroxide to a final concentration of 0.5 mM. Antimicrobial activity was determined after 20 minutes incubation at 40° C., by a 10-fold dilution of the cell suspension into TSB substrate and incubation overnight. Antimicrobial activity was determined as log10 reduction, thus a log10 reduction of 2 corresponds to a kill of 99%.

In the case of `CN(C)c1ccc(N=Nc2ccc(O)cc2)cc1` [4-Hydroxy-4′-dimethylamino azobenzene], the Log10 reduction is reported as 6*.

First: CN1c2ccccc2Oc2ccccc21 [10-Methylphenoxazine]
Second: Oc1ccc(-c2ccc(O)cc2)cc1 [4,4′-Biphenol, 97%, 4,4′-Biphenol]
The Log10 reduction of the first is higher: 3 for the first, 1.5 for the second.

`Oc1ccc(Oc2ccc(O)cc2)cc1` [4,4′-Dihydroxyphenyl ether, 4,4′-Dihydroxydiphenyl ether] and `Nc1ccc(O)cc1` [4-aminophenol] are the same in Log10 reduction: 2.5 for the first, 2.5 for the second.
